Experimental data reported in ChEMBL document CHEMBL1136880, “Discovery of N-aryl-9-oxo-9H-fluorene-1-carboxamides as a new series of apoptosis inducers using a cell- and caspase-based high-throughput screening assay. 1. Structure-activity relationships of the carboxamide group” (Bioorg Med Chem Lett, 2009).
Values after ≈ are worked out from the molar mass of the structure shown. Active and inactive are the calls of the source. No cut-off for these calls is given here.

What was measured:
T47D [1] = assay: Induction of apoptosis in human T47D cells after 48 hrs; format: functional, cell-based
HCT-116 [2] = assay: Induction of apoptosis in human HCT116 cells after 48 hrs; format: functional, cell-based; conditions: HCT-116, 48 h
SNU-398 [3] = assay: Induction of apoptosis in human SNU398 cells after 48 hrs; format: functional, cell-based; conditions: SNU-398, 48 h
[4] = Inhibition of tubulin polymerization by DAPI staining method
T47D [5] = assay: Growth inhibition of human T47D cells after 48 hrs; format: functional
HCT-116 [6] = assay: Growth inhibition of human HCT116 cells after 48 hrs; format: functional; conditions: HCT-116, 48 h
SNU-398 [7] = assay: Growth inhibition of human SNU398 cells after 48 hrs; format: functional; conditions: SNU-398, 48 h
HCT-116 [8] = assay: Cell cycle arrest in human HCT116 cells assessed as accumulation at subG1 phase at 2 uM after 48 hrs by flow cytometry; format: functional
HCT-116 [9] = assay: Cell cycle arrest in human HCT116 cells assessed as accumulation at G1 phase at 2 uM after 48 hrs by flow cytometry; format: functional
HCT-116 [10] = assay: Cell cycle arrest in human HCT116 cells assessed as accumulation at S phase at 2 uM after 48 hrs by flow cytometry; format: functional
HCT-116 [11] = assay: Cell cycle arrest in human HCT116 cells assessed as accumulation at G2/M phase at 2 uM after 48 hrs by flow cytometry; format: functional
[12] = Solubility in buffer solution containing ethanol:Cremophor:D5W of 12.5:12.5:75; format: physicochemical
HCT-116 [13] = assay: Cell cycle arrest in human HCT116 cells assessed as accumulation at subG1 phase at 2 uM after 24 hrs by flow cytometry; format: functional
HCT-116 [14] = assay: Cell cycle arrest in human HCT116 cells assessed as accumulation at G1 phase at 2 uM after 24 hrs by flow cytometry; format: functional
HCT-116 [15] = assay: Cell cycle arrest in human HCT116 cells assessed as accumulation at S phase at 2 uM after 24 hrs by flow cytometry; format: functional
HCT-116 [16] = assay: Cell cycle arrest in human HCT116 cells assessed as accumulation at G2/M phase at 2 uM after 24 hrs by flow cytometry; format: functional

Structure (SMILES) | EC50 (T47D [1]) | EC50 (HCT-116 [2]) | EC50 (SNU-398 [3]) | further results
O=C(Nc1ccccc1F)c1cccc2c1C(=O)c1ccccc1-2 | 1800 nM | > 10000 nM | > 10000 nM | –
COc1ccccc1NC(=O)c1cccc2c1C(=O)c1ccccc1-2 | 620 nM | 7500 nM | 4900 nM | –
O=C(Nc1ccccc1-n1cccc1)c1cccc2c1C(=O)c1ccccc1-2 | 5900 nM | 6300 nM | 5500 nM | –
[N-]=[N+]=Nc1ccccc1NC(=O)c1cccc2c1C(=O)c1ccccc1-2 | 3500 nM | 3600 nM | 4400 nM | –
CN(C)Cc1ccccc1NC(=O)c1cccc2c1C(=O)c1ccccc1-2 | 1400 nM | 940 nM | 710 nM | –
COc1ccccc1CNC(=O)c1cccc2c1C(=O)c1ccccc1-2 | > 10000 nM | > 10000 nM | > 10000 nM | –
O=C(Nc1ccccc1)c1cccc2c1C(=O)c1ccccc1-2 | 4400 nM | > 10000 nM | > 10000 nM | –
Cc1ccccc1N(C)C(=O)c1cccc2c1C(=O)c1ccccc1-2 | > 10000 nM | > 10000 nM | > 10000 nM | –
COc1cc2c(c(OC)c1OC)-c1ccc(OC)c(=O)cc1[C@@H](NC(C)=O)CC2 [COLCHICINE] | – | – | – | IC50 ([4]; read-out: IC50): 500 nM
COC(=O)c1ccccc1NC(=O)c1cccc2c1C(=O)c1ccccc1-2 | 2400 nM | 520 nM | 340 nM | GI50 (T47D [5]): 180 nM; GI50 (HCT-116 [6]): 480 nM; GI50 (SNU-398 [7]): 310 nM
Cc1cccc(NC(=O)c2cccc3c2C(=O)c2ccccc2-3)c1 | > 10000 nM | > 10000 nM | > 10000 nM | –
Cc1ccc(NC(=O)c2cccc3c2C(=O)c2ccccc2-3)cc1 | 4600 nM | > 10000 nM | > 10000 nM | –
O=C(Nc1ccccc1N1CCOCC1)c1cccc2c1C(=O)c1ccccc1-2 | 5300 nM | 5200 nM | 3900 nM | –
O=C(Nc1ccccc1-n1cccn1)c1cccc2c1C(=O)c1ccccc1-2 | 1400 nM | 1300 nM | 1100 nM | Activity (HCT-116 [8]): Active; Activity (HCT-116 [9]): Active; Activity (HCT-116 [10]): Active; Activity (HCT-116 [11]): Active; solubility [12]: 6100 µg/mL (≈ 16.7 mM); IC50 [4]: Not Active; GI50 (T47D [5]): 160 nM; GI50 (HCT-116 [6]): 1100 nM; GI50 (SNU-398 [7]): 780 nM; Activity (HCT-116 [13]): Active; Activity (HCT-116 [14]): Active; Activity (HCT-116 [15]): Active; Activity (HCT-116 [16]): Active
Nc1ccccc1NC(=O)c1cccc2c1C(=O)c1ccccc1-2 | > 10000 nM | > 10000 nM | > 10000 nM | –
Cc1cccnc1NC(=O)c1cccc2c1C(=O)c1ccccc1-2 | > 10000 nM | > 10000 nM | > 10000 nM | –
O=C(Nc1ccccc1CBr)c1cccc2c1C(=O)c1ccccc1-2 | 4700 nM | 10700 nM | 7200 nM | –
O=C(Nc1cccnc1)c1cccc2c1C(=O)c1ccccc1-2 | > 10000 nM | > 10000 nM | > 10000 nM | –
CN(C(=O)c1cccc2c1C(=O)c1ccccc1-2)c1ccccc1-n1cccn1 | > 10000 nM | > 10000 nM | > 10000 nM | –
Cc1cccc(C)c1NC(=O)c1cccc2c1C(=O)c1ccccc1-2 | > 10000 nM | > 10000 nM | > 10000 nM | –
O=C(Nc1nccs1)c1cccc2c1C(=O)c1ccccc1-2 | > 10000 nM | > 10000 nM | > 10000 nM | –

Structure (SMILES) | EC50 (T47D [1]) | EC50 (HCT-116 [2]) | EC50 (SNU-398 [3]) | further results
O=C(Nc1ccccc1Br)c1cccc2c1C(=O)c1ccccc1-2 | 2300 nM | 2700 nM | 2200 nM | –
O=C(Nc1ccccc1-n1ccnc1)c1cccc2c1C(=O)c1ccccc1-2 | > 10000 nM | > 10000 nM | > 10000 nM | –
CC1CCCCC1NC(=O)c1cccc2c1C(=O)c1ccccc1-2 (stereo not given) | > 10000 nM | > 10000 nM | > 10000 nM | –
N#Cc1ccccc1NC(=O)c1cccc2c1C(=O)c1ccccc1-2 | > 10000 nM | > 10000 nM | > 10000 nM | –
O=C(Nc1ccccc1OCF)c1cccc2c1C(=O)c1ccccc1-2 | 480 nM | 2300 nM | 1500 nM | –
Cc1ccccc1NC(=O)c1cccc2c1C(=O)c1ccccc1-2 | 980 nM | 1100 nM | 640 nM | Activity (HCT-116 [8]): 41%; Activity (HCT-116 [9]): 29%; Activity (HCT-116 [10]): 11%; Activity (HCT-116 [11]): 16%; IC50 [4]: Not Active; GI50 (T47D [5]): 180 nM; GI50 (HCT-116 [6]): 360 nM; GI50 (SNU-398 [7]): 300 nM; Activity (HCT-116 [13]): 8%; Activity (HCT-116 [14]): 32%; Activity (HCT-116 [15]): 10%; Activity (HCT-116 [16]): 48%
O=C(Nc1ccccc1N1CCCCC1)c1cccc2c1C(=O)c1ccccc1-2 | 2800 nM | 2600 nM | 2100 nM | –
CC[C@]1(O)C[C@@H]2CN(CCc3c([nH]c4ccccc34)[C@@](C(=O)OC)(c3cc4c(cc3OC)N(C)[C@H]3[C@@](O)(C(=O)OC)[C@H](OC(C)=O)[C@]5(CC)C=CCN6CC[C@]43[C@@H]65)C2)C1 [VINBLASTINE] | – | – | – | IC50 ([4]; read-out: IC50): 500 nM
CN1CCN(Cc2ccccc2NC(=O)c2cccc3c2C(=O)c2ccccc2-3)CC1 | > 10000 nM | > 10000 nM | > 10000 nM | –
Cc1ccccc1C(=O)Nc1cccc2c1C(=O)c1ccccc1-2 | 2100 nM | 2200 nM | 1300 nM | –
COc1ccc(NC(=O)c2cccc3c2C(=O)c2ccccc2-3)cc1 | 3700 nM | > 10000 nM | > 10000 nM | –
O=C(Nc1ccccc1-c1ccccc1)c1cccc2c1C(=O)c1ccccc1-2 | 1700 nM | 1800 nM | 1700 nM | GI50 (T47D [5]): 210 nM; GI50 (HCT-116 [6]): 580 nM; GI50 (SNU-398 [7]): 350 nM
O=C(NCc1ccccc1Cl)c1cccc2c1C(=O)c1ccccc1-2 | > 10000 nM | > 10000 nM | > 10000 nM | –
Cc1ccncc1NC(=O)c1cccc2c1C(=O)c1ccccc1-2 | > 10000 nM | > 10000 nM | > 10000 nM | –
O=C(Nc1ccccc1O)c1cccc2c1C(=O)c1ccccc1-2 | > 10000 nM | > 10000 nM | > 10000 nM | –
O=C(Nc1ccccc1-c1nnn[nH]1)c1cccc2c1C(=O)c1ccccc1-2 | > 10000 nM | > 10000 nM | > 10000 nM | –
O=C(Nc1ccccn1)c1cccc2c1C(=O)c1ccccc1-2 | > 10000 nM | > 10000 nM | > 10000 nM | –
O=C(Nc1ccccc1Cl)c1cccc2c1C(=O)c1ccccc1-2 | 470 nM | 560 nM | 410 nM | GI50 (T47D [5]): 230 nM; GI50 (HCT-116 [6]): 540 nM; GI50 (SNU-398 [7]): 530 nM
CN(C)c1ccccc1NC(=O)c1cccc2c1C(=O)c1ccccc1-2 | 980 nM | 1200 nM | 830 nM | solubility [12]: 6100 µg/mL (≈ 17.8 mM)
CCOc1ccccc1NC(=O)c1cccc2c1C(=O)c1ccccc1-2 | 2900 nM | 1600 nM | 960 nM | GI50 (T47D [5]): 450 nM; GI50 (HCT-116 [6]): 400 nM; GI50 (SNU-398 [7]): 270 nM
O=C(Nc1ccccc1[N+](=O)[O-])c1cccc2c1C(=O)c1ccccc1-2 | 2500 nM | 5500 nM | 2600 nM | –
